“Also recorded” adds a separate entry of the source.
How the values were obtained:
radial artery rings = format: cell-based, Human
[1] = tested on: endothelial mediated relaxation
mammary artery samples = format: cell-based, Human
vascular smooth muscle = format: cell-based, Human
radial artery tissue = assay: spontaneous contractility of radial artery tissue; format: cell-based, Human; conditions: radial artery tissue (FIG. 11A)

Molecule | concentration most effective at inhibiting adrenaline-mediated contraction (radial artery rings) | effect on dose response curves to adrenaline, angiotensin II or PGF2α (radial artery rings) | effect on subsequent vasoconstrictor responses (in words) (radial artery rings) | incubation time at which toxin is effective in inhibiting adrenaline-induced vasoconstriction (radial artery rings) | inhibition of contraction, depending on the vasoconstrictor (radial artery rings) | endothelial mediated relaxation after incubation with toxin [1] | concentration most effective at inhibiting angiotensin II induced contraction (mammary artery samples) | optimal concentration most effective at reducing contractile activity (vascular smooth muscle) | effect on angiotensin II-induced contraction (radial artery rings) | effect on spontaneous contraction (radial artery tissue)
pertussis toxin | 50 µg/mL | inhibited the contraction | inhibit the maximal contraction force produced and the sensitivity | 60 min | 20-60% | no impairment |  |  |  | 
cholera toxin | 25 µg/mL | inhibited the contraction | inhibit the maximal contraction force produced and the sensitivity | 30 min | 15-50% | no impairment | 0.57 µM | about 0.6 μM; also recorded: about 51 μg/ml |  | 
CC(COc1ccccc1)N(CCCl)Cc1ccccc1 (stereo not shown) [phenoxybenzamine, Phenoxybenzamine, reference compound] |  |  |  |  |  |  |  |  | no inhibitory effect | no effect; also recorded: lack of effect

Source: US20100047284A1 (priority 2006, published 2010)
